From patent EP4722212A1, “NOVEL COMPOUND FOR INHIBITING PROTEIN KINASES AND PHARMACEUTICAL COMPOSITION COMPRISING SAME” (Magicbullettherapeutics Co., Ltd., priority 2023, dated 2024)
Where two headings read alike, the source gives them in different places.

Legend:
Assay in all cases: Kinase panel
Assay type in all cases: biochemical
EPHA1 = EPHA1 (Homo sapiens, UniProt P21709); conditions: EPHA1, 1 µM; read-out: residual enzyme activity
Outline: (§1)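 1 µM, one concentration only, biochemical panel format. Residual activity computed per kinase; threshold for identification: residual ≤40%.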

CHK2 = CHK2 (Homo sapiens, UniProt O96017); conditions: CHK2, 1 µM; read-out: residual enzyme activity
Outline: as §1

EPHA6 = EPHA6 (Homo sapiens, UniProt Q9UF33); conditions: EPHA6, 1 µM; read-out: residual enzyme activity
Outline: as §1

NIM1 = NIM1 (Homo sapiens, UniProt Q8IY84); conditions: NIM1, 1 µM; read-out: residual enzyme activity
Outline: as §1

CAMK1B = CAMK1B (Homo sapiens, UniProt Q6P2M8); conditions: read-out: residual enzyme activity
Outline: as §1

GRK2 = GRK2 (Homo sapiens, UniProt P25098); conditions: GRK2, 1 µM; read-out: residual enzyme activity
Outline: as §1

STK38/NDR1 = STK38/NDR1 (Homo sapiens, UniProt Q15208); conditions: STK38/NDR1, 1 µM; read-out: residual enzyme activity
Outline: as §1

CDK1/CYCLIN E = CDK1/CYCLIN E (Homo sapiens, UniProt P06493); conditions: read-out: residual enzyme activity
Outline: as §1

ROS/ROS1 = ROS/ROS1 (Homo sapiens, UniProt P08922); conditions: ROS/ROS1, 1 µM; read-out: residual enzyme activity
ROS/ROS1, sequence (P08922 28-2347): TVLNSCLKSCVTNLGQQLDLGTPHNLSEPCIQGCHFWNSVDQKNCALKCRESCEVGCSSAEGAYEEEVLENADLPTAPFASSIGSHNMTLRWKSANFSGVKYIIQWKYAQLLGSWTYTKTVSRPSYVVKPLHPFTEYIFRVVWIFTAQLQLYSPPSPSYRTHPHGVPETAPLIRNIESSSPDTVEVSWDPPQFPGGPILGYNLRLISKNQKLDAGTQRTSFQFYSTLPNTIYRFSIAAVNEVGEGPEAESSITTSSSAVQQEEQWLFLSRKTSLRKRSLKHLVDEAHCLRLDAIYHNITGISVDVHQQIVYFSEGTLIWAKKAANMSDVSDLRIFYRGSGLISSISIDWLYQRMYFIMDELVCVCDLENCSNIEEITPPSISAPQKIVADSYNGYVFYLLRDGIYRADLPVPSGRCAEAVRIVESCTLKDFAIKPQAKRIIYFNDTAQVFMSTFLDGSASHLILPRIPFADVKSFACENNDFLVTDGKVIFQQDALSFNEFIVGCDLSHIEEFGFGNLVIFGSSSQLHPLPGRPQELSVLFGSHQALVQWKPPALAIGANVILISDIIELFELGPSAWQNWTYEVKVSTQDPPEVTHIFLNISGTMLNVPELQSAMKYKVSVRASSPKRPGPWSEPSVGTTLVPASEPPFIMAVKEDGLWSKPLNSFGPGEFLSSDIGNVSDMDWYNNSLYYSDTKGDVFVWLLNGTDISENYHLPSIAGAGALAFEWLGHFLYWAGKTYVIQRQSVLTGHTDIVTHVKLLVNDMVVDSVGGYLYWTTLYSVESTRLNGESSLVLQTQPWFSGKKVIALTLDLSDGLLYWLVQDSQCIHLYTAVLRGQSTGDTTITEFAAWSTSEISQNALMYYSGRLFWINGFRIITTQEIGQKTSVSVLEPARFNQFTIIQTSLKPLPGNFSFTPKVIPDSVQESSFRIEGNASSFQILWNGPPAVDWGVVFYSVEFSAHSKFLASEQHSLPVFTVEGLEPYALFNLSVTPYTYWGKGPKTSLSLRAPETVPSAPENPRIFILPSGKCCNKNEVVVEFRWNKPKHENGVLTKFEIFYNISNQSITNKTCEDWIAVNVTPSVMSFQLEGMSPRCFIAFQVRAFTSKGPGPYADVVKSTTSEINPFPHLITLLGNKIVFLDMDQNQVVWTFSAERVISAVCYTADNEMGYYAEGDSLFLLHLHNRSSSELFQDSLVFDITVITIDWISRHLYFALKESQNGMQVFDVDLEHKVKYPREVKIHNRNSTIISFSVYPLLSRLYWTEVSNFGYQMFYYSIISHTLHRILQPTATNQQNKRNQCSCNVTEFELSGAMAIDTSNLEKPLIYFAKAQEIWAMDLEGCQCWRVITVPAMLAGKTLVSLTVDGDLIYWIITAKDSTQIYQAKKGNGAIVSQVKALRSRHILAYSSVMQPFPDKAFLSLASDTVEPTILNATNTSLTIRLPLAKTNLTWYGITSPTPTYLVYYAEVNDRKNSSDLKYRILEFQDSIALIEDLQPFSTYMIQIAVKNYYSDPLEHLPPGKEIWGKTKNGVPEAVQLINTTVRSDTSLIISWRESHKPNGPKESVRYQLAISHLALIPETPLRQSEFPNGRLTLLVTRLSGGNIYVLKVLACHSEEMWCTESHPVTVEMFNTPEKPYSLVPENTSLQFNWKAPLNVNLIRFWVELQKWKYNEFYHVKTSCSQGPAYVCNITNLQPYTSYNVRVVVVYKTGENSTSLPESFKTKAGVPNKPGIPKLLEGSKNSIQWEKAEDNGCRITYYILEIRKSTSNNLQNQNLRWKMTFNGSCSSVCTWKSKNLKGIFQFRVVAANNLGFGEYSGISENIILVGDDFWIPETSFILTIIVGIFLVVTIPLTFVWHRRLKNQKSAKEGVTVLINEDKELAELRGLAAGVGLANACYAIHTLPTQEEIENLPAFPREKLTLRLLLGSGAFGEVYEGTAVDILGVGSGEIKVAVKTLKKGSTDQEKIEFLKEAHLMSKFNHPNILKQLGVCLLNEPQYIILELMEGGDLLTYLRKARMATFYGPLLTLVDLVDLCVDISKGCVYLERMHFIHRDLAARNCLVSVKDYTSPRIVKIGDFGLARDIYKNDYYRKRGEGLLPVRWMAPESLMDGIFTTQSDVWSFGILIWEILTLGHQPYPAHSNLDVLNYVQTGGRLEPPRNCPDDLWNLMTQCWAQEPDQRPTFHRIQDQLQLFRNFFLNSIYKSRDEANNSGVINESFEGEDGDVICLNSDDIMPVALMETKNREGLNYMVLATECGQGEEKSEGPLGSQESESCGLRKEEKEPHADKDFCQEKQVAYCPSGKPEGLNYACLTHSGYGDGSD
Outline: as §1

PAK6 = PAK6 (Homo sapiens, UniProt Q9NQU5); conditions: PAK6, 1 µM; read-out: residual enzyme activity
PAK6, sequence (Q9NQU5 whole entry, species assumed): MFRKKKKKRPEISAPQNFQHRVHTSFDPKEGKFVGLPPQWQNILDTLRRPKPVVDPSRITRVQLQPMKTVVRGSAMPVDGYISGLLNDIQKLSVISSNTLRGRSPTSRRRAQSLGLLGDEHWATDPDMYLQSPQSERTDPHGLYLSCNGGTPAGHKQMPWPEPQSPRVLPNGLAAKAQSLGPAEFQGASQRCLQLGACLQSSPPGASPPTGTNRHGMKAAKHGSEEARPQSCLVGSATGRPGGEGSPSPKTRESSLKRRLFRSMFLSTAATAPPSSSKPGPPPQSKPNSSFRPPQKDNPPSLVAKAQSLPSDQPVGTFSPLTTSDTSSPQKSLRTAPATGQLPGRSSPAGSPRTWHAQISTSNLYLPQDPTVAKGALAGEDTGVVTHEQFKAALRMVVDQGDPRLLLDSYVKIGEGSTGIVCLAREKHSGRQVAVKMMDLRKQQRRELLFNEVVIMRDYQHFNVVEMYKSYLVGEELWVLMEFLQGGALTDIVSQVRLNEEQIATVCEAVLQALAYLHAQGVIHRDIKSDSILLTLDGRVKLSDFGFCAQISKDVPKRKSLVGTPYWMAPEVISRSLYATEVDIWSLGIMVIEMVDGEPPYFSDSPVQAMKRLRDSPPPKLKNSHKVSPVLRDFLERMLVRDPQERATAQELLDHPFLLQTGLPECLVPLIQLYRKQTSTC
Outline: as §1

FRK/PTKS = FRK/PTKS (Homo sapiens, UniProt P42685); conditions: read-out: residual enzyme activity
Outline: as §1

CAMKK2 = CAMKK2 (Homo sapiens, UniProt Q96RR4); conditions: CAMKK2, 1 µM; read-out: residual enzyme activity
Outline: as §1

TEC = TEC (Homo sapiens, UniProt P42680); conditions: read-out: residual enzyme activity
Outline: as §1

SRMS = SRMS (Homo sapiens, UniProt Q9H3Y6); conditions: read-out: residual enzyme activity
SRMS, sequence (Q9H3Y6 whole entry, species assumed): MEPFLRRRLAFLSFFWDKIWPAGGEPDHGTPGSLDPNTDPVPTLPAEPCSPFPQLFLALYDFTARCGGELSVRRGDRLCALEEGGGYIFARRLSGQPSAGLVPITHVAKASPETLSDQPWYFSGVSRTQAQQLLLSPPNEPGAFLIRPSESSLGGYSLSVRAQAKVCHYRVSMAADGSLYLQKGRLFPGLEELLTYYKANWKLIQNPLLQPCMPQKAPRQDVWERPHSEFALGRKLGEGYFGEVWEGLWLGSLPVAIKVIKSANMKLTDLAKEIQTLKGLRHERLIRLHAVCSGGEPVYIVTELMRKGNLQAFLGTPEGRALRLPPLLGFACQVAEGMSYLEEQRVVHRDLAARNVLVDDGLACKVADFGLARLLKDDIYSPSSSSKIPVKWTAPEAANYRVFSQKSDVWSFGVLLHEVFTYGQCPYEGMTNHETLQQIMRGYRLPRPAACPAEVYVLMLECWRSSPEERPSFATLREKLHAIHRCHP
Outline: as §1

MYLK4 = MYLK4 (Homo sapiens, UniProt Q86YV6); conditions: MYLK4, 1 µM; read-out: residual enzyme activity
Outline: as §1

WEE1 = WEE1 (Homo sapiens, UniProt P30291); conditions: WEE1, 1 µM; read-out: residual enzyme activity
Outline: as §1

JNK3 = JNK3 (Homo sapiens, UniProt P53779); conditions: JNK3, 1 µM; read-out: residual enzyme activity
Outline: as §1

MEKK3 = MEKK3 (Homo sapiens, UniProt Q99759); conditions: MEKK3, 1 µM; read-out: residual enzyme activity
MEKK3, sequence (Q99759 whole entry, species assumed): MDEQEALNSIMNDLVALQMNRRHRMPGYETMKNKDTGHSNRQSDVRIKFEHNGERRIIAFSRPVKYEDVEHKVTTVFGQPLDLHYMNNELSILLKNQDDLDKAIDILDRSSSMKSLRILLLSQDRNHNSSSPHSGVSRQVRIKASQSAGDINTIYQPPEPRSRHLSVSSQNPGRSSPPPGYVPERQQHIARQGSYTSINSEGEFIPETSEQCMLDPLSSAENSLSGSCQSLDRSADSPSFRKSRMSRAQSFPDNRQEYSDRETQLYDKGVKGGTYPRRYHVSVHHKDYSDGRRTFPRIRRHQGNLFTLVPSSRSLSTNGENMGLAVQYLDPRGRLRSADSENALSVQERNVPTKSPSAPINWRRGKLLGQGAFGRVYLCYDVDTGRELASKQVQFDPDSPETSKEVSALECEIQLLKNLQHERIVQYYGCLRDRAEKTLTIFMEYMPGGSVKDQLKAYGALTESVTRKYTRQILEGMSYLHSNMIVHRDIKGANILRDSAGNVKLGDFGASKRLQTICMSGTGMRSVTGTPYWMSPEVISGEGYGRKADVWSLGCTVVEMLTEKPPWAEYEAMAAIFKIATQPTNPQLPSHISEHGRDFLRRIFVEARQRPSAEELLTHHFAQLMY
Outline: as §1

P70S6K/RPS6KB1 = P70S6K/RPS6KB1 (Homo sapiens, UniProt P23443); conditions: read-out: residual enzyme activity
Outline: as §1

TAOK2/TAO1 = TAOK2/TAO1 (Homo sapiens, UniProt Q9UL54); conditions: TAOK2/TAO1, 1 µM; read-out: residual enzyme activity
Outline: as §1

PIM1 = PIM1 (Homo sapiens, UniProt P11309); conditions: PIM1, 1 µM; read-out: residual enzyme activity
PIM1, sequence (P11309 whole entry, species assumed): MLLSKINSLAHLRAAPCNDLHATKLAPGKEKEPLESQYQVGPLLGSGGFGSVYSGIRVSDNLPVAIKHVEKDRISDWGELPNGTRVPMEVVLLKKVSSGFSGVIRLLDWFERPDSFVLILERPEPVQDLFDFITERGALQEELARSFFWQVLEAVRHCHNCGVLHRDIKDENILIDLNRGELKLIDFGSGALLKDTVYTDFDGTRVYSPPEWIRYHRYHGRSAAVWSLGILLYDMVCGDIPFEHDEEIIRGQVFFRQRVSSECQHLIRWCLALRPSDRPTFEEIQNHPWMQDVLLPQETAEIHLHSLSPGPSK
Outline: as §1

PAK3 = PAK3 (Homo sapiens, UniProt O75914); conditions: PAK3, 1 µM; read-out: residual enzyme activity
Outline: as §1

SGK3/SGKL = SGK3/SGKL (Homo sapiens, UniProt Q96BR1); conditions: read-out: residual enzyme activity
SGK3/SGKL, sequence (Q96BR1 whole entry): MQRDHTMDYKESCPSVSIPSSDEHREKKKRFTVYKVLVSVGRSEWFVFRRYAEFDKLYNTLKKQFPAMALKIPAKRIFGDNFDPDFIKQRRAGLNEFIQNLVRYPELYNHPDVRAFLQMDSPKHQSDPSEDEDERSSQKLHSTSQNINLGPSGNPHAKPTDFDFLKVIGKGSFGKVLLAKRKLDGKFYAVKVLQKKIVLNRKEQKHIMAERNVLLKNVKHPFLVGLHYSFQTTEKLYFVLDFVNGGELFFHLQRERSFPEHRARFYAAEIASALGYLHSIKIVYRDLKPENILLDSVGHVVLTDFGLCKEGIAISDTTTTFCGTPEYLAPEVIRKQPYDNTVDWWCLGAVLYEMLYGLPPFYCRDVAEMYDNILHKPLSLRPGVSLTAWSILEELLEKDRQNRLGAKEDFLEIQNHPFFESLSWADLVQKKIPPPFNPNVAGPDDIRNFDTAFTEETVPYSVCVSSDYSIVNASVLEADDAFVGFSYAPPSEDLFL
Outline: as §1

CK1G1 = CK1G1 (Homo sapiens, UniProt Q9HCP0); conditions: read-out: residual enzyme activity
Outline: as §1

RIPK5 = RIPK5 (Homo sapiens, UniProt Q6XUX3); conditions: RIPK5, 1 µM; read-out: residual enzyme activity
Outline: as §1

MRCKB/CDC42BPB = MRCKB/CDC42BPB (Homo sapiens, UniProt Q9Y5S2); conditions: read-out: residual enzyme activity
Outline: as §1

CDK1/CYCLIN A = CDK1/CYCLIN A (Homo sapiens, UniProt P06493); conditions: read-out: residual enzyme activity
Outline: as §1

SSTK/TSSK6 = SSTK/TSSK6 (Homo sapiens, UniProt Q9BXA6); conditions: SSTK/TSSK6, 1 µM; read-out: residual enzyme activity
Outline: as §1

ZAP70 = ZAP70 (Homo sapiens, UniProt P43403); conditions: ZAP70, 1 µM; read-out: residual enzyme activity
Outline: as §1

JAK2 = JAK2 (Homo sapiens, UniProt O60674); conditions: JAK2, 1 µM; read-out: residual enzyme activity
Outline: as §1

GRK4 = GRK4 (Homo sapiens, UniProt P32298); conditions: GRK4, 1 µM; read-out: residual enzyme activity
Outline: as §1

CDK6/CYCLIN D3 = CDK6/CYCLIN D3 (Homo sapiens, UniProt Q00534); conditions: CDK6/cyclin D3, 1 µM; read-out: residual enzyme activity
Outline: as §1

CK1A1 = CK1A1 (Homo sapiens, UniProt P48729); conditions: read-out: residual enzyme activity
Outline: as §1

Row | SMILES | remaining activity at 1 µM (EPHA1) | remaining activity at 1 µM (CHK2) | remaining activity at 1 µM (EPHA6) | remaining activity at 1 µM (NIM1) | remaining activity at 1 µM (GRK2) | remaining activity at 1 µM (STK38/NDR1) | remaining activity at 1 µM (CDK1/CYCLIN E) | remaining activity at 1 µM (ROS/ROS1) | remaining activity at 1 µM (PAK6) | remaining activity at 1 µM (FRK/PTKS) | remaining activity at 1 µM (CAMKK2) | remaining activity at 1 µM (TEC) | remaining activity at 1 µM (SRMS) | remaining activity at 1 µM (MYLK4) | remaining activity at 1 µM (WEE1) | remaining activity at 1 µM (JNK3) | remaining activity at 1 µM (MEKK3) | remaining activity at 1 µM (TAOK2/TAO1) | remaining activity at 1 µM (PIM1) | remaining activity at 1 µM (PAK3) | also measured
1 | Cc1ccc(Nc2ncc3c(n2)C2(CC2)C(=O)N(c2cc(NC(=O)c4cccc(C(F)(F)F)c4)ccc2C)C3)cn1 [Compound 51, N-(4-methyl-3-(2'-((6-methylpyridin-3-yl)amino)-7'-oxo-5'H-spiro[cyclopropane-1,8'-pyrido[4,3-d]pyrimidine]-6'(7'H)-yl)phenyl)-3-(trifluoromethyl)benzamide] | ≤ 40% | > 40% | ≤ 40% | > 40% | > 40% | > 40% | > 40% | ≤ 40% | > 40% | ≤ 40% | > 40% | ≤ 40% | ≤ 40% | > 40% | > 40% | ≤ 40% | ≤ 40% | ≤ 40% | > 40% | > 40% | remaining activity at 1 µM (CAMK1B; CAMK1b): > 40%; remaining activity at 1 µM (P70S6K/RPS6KB1; p70S6K/RPS6KB1, 1 µM): ≤ 40%; remaining activity at 1 µM (SGK3/SGKL): > 40%; remaining activity at 1 µM (CK1G1; CK1g1, 1 µM): > 40%; remaining activity at 1 µM (RIPK5): > 40%; remaining activity at 1 µM (MRCKB/CDC42BPB): > 40%; remaining activity at 1 µM (CDK1/CYCLIN A): > 40%; remaining activity at 1 µM (SSTK/TSSK6): > 40%; remaining activity at 1 µM (ZAP70): > 40%; remaining activity at 1 µM (JAK2): ≤ 40%; remaining activity at 1 µM (GRK4): > 40%; remaining activity at 1 µM (CDK6/CYCLIN D3): > 40%; remaining activity at 1 µM (CK1A1; CKlal, 1 µM): > 40%
2 | Cc1cn(-c2cc(C(=O)Nc3ccc(C)c(N4Cc5cnc(NC6CC6)nc5C5(CC5)C4=O)c3)cc(C(F)(F)F)c2)cn1 [Compound 8, N-(3-(2'-(cyclopropylamino)-7'-oxo-5'H-spiro[cyclopropane-1,8'-pyrido[4,3-d]pyrimidine]-6'(7'H)-yl)-4-methylphenyl)-3-(4-methyl-1H-imidazol-1-yl)-5-(trifluoromethyl)benzamide] | ≤ 40% | > 40% | ≤ 40% | > 40% | > 40% | > 40% | > 40% | ≤ 40% | > 40% | ≤ 40% | > 40% | ≤ 40% | ≤ 40% | > 40% | > 40% | > 40% | ≤ 40% | ≤ 40% | > 40% | > 40% | remaining activity at 1 µM (CAMK1B; CAMK1B): > 40%; remaining activity at 1 µM (P70S6K/RPS6KB1; P70S6K/RPS6KB1, 1 µM): > 40%; remaining activity at 1 µM (SGK3/SGKL): > 40%; remaining activity at 1 µM (CK1G1; CK1G1, 1 µM): > 40%; remaining activity at 1 µM (RIPK5): > 40%; remaining activity at 1 µM (MRCKB/CDC42BPB): > 40%; remaining activity at 1 µM (CDK1/CYCLIN A): > 40%; remaining activity at 1 µM (SSTK/TSSK6): > 40%; remaining activity at 1 µM (ZAP70): > 40%; remaining activity at 1 µM (JAK2): ≤ 40%; remaining activity at 1 µM (GRK4): > 40%; remaining activity at 1 µM (CDK6/CYCLIN D3): > 40%; remaining activity at 1 µM (CK1A1; CK1A1, 1 µM): > 40%
